Source: patent publication US12435085B2, “Crystalline forms and formulations of a VCP/p97 inhibitor” (CASI Pharmaceuticals, Inc., priority 2020, dated 2025)

Columns and labels:
p97 = p97 (Homo sapiens, UniProt P55072); assay: p97 inhibition assay (ADP glo luminescence); assay type: biochemical; conditions: ATP 20 μM, p97 20 nM, 37° C. for 15 min
Description: The p97 assay is an assay used to determine inhibitory activity of compounds against the p97 complex. Inhibition of activity of the p97 proteosome complex can enable apoptosis and cause elimination of neoplastic cells (cancer cells). The assay follows that of Christianson in Nat. Cell Biol., (2011) 14:93. The reagents used for the p97 assay include an assay buffer which is a mixture of 50 mM TRIS pH 7.5, 20 mM MgCI˜, 0.02% TX-100, 1 mM DTT and 0.2% (v/v) glycerol. The well plate is a Corning 3674, 384w plate. The identification kit is an ADP glo kit (Promega): stop buffer, detection reagent.
The assay is conducted as follows: • Serial dilute compound in DMSO in a 1:3.33-fold 10 point serial dilution. • In each well of 384w plate add the following reagents: • 0.5 μL compound serial diluted in DMSO (Final Conc. 10%) • 2 μL ATP (Final Conc.=20 μM, diluted in assay buffer) • 2.5 μL p97 (Final Conc.=20 nM, diluted in assay buffer). • Incubate at 37° C. for 15 min. • Add 5 μL of stop buffer, incubate at RT for 40 min. • Add 10 μL of detection reagent, incubate at RT for 30 min. • Read luminescence on Envision plate reader. […]

[1] = Relative humidity (RH) stress of salts; assay type: physicochemical; conditions: solid in open vial, 10 days at 94% RH
Excerpt: Solids of select Compound 1 salts were exposed to ˜94% RH (ASTM Standard E, 104-85, 1996) for a given period of time by placing the solids into an open vial inside a sealed container. Samples were observed visually for signs of deliquescence after removal from the stress environment.

p97, sequence (P55072 whole entry): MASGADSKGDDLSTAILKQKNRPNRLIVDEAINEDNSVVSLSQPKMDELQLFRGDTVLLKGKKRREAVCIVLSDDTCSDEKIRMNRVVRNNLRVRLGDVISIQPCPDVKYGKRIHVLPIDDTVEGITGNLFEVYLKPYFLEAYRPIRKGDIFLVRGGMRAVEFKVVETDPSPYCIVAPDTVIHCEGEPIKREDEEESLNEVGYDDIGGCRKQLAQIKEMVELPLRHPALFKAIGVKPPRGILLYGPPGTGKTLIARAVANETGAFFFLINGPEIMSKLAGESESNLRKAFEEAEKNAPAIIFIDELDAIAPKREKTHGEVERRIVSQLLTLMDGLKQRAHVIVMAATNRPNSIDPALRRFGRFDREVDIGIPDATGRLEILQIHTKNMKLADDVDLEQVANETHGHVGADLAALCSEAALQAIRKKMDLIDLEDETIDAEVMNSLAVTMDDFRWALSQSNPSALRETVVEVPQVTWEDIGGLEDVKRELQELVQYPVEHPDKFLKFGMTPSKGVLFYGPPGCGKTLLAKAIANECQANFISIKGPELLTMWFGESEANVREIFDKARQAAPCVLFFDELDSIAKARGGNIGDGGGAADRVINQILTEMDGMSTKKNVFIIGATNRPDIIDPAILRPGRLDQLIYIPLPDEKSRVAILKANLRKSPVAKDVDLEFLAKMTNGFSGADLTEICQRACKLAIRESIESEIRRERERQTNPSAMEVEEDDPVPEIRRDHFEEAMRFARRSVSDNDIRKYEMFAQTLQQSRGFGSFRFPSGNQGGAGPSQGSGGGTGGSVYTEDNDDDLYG

IC50 (p97) | RH stress: change in appearance/texture (signs of deliquescence, visual) [1] | Structure (SMILES)
< 30 nM | – | Cc1cc2c(C(N)=O)cccc2n1-c1nc2c(c(NCc3ccccc3)n1)CCCN2 [Compound 1, 1-(4-(benzylamino)-5,6,7,8-tetrahydropyrido[2,3-d]pyrimidin-2-yl)-2-methyl-1H-indole-4-carboxamide]
– | no apparent change in appearance/texture | Cc1cc2c(C(N)=O)cccc2n1-c1nc2c(c(NCc3ccccc3)n1)CCCN2.O=S(=O)(O)O.O=S(=O)(O)O [Compound 1 sulfate, 1-(4-(benzylamino)-5,6,7,8-tetrahydropyrido[2,3-d]pyrimidin-2-yl)-2-methyl-1H-indole-4-carboxamide sulfuric acid salt (sulfate)]
– | no apparent change in appearance/texture | Cc1cc2c(C(N)=O)cccc2n1-c1nc2c(c(NCc3ccccc3)n1)CCCN2.Cc1ccc(S(=O)(=O)O)cc1.Cc1ccc(S(=O)(=O)O)cc1 [Compound 1 tosylate, 1-(4-(benzylamino)-5,6,7,8-tetrahydropyrido[2,3-d]pyrimidin-2-yl)-2-methyl-1H-indole-4-carboxamide p-toluenesulfonic acid salt (tosylate)]
– | no apparent change in appearance/texture | Cc1cc2c(C(N)=O)cccc2n1-c1nc2c(c(NCc3ccccc3)n1)CCCN2.Cl.Cl [Compound 1 hydrochloride, 1-(4-(benzylamino)-5,6,7,8-tetrahydropyrido[2,3-d]pyrimidin-2-yl)-2-methyl-1H-indole-4-carboxamide hydrochloric acid salt (hydrochloride)]
